According to patent publication US11419856B2, “Pharmaceutical combinations for use in the treatment of neoplastic diseases” (Basilea Pharmaceutica International AG, priority 2017, dated 2022):

Assays:
[1] = system: MDA-MB-231 xenograft (human triple negative breast cancer); experiment: Antitumor efficacy and induction of cures in the MDA-MB-231 xenograft model (Examples 1A, 1B); assay type: in vivo, mouse
Protocol: (§1) Female athymic nude mice (Crl:NU(NCr)-Foxnlnu, Charles River) were used when ten weeks old with a body weight (BW) range of 19.7-27.1 g on Day 1 of the study. The animals were fed ad libitum water (reverse osmosis, 1 ppm Cl) and NIH 31 Modified and Irradiated Lab Diet® consisting of 18.0% crude protein, 5.0% crude fat, and 5.0% crude fiber. The mice were housed on irradiated Enrich-o'Cobs™ Laboratory Animal Bedding in static micro-isolators on a 12-hour light cycle at 20-22° C. (68-72° F.) and 40-60% humidity. Charles River Discovery Services North Carolina (CR Discovery Services) specifically complies with the recommendations of the Guide for Care and Use of Laboratory Animals with respect to restraint, husbandry, surgical procedures, feed and fluid regulation, and veterinary care. The animal care and use program at CR Discovery Services is accredited by the Association for Assessment and Accreditation of Laboratory Animal Care International (AAALAC), which assures compliance with accepted standards for the care and use of laboratory animals. These considerations were taken into account in the way that the dosage regimes were designed and implemented.
The human MDA-MB-231 breast adenocarcinoma cells were grown to mid-log phase in RPMI-1640 medium containing 10% fetal bovine serum, 2 mM glutamine, 100 units/mL sodium penicillin G, 25 μg/mL gentamicin, and 100 μg/mL streptomycin sulfate. The tumor cells were cultured in tissue culture flasks in a humidified incubator at 37° C./5% CO2 and 95% air, harvested during exponential growth and resuspended in cold Phosphate-buffered saline (PBS). Each test animal received a subcutaneous (s.c.) injection of 5×10^6 MDA-MB-231 cells (0.1 mL cell suspension) into the right flank, and tumor growth was monitored as the average tumor size approached the target range of 100-150 mm^3. Tumors were measured (mm) in two dimensions using calipers, and volume was calculated using the formula: Tumor Volume (TV) (mm^3)=(width^2×length)/2. Eighteen days after tumor cell implantation, on Day 1 of the study, mice with individual tumor volumes ranging from 75 to 172 mm^3 were randomized into groups of 8-10 animals, with group mean tumor volumes of 114-124 mm^3.
BAL0101553 was dissolved in 0.9% NaCl in water buffered to pH 5 with 1% sodium acetate to yield 2, 2.5 and 3 mg/mL dosing solutions, providing 20, 25 and 30 mg/kg dosages, respectively, in 10 mL/kg dosing volumes. Eribulin (purchased from Eisai Co., Lot. No. 6217, 6288, 6289 and 6309) at 0.5 mg/mL concentration was diluted in saline to yield a 0.01, 0.025 and 0.05 mg/mL dosing solutions, providing 0.1, 0.25 and 0.5 mg/kg dosages, respectively, in a dosing volume of 10 mL/kg.
(§2) Groups of mice (n=8-10) bearing MDA-MB-231 tumors were dosed as outlined in the Tables 1 and 3. All doses were adjusted to 10 mL/kg. The control groups received oral doses of vehicle (pH 5 buffered 0.9% NaCl solution). Eribulin was administered i.v. and BAL101553 orally. When eribulin and BAL0101553 were dosed in combination, Eribulin was administered to all groups first followed by BAL0101553 dosing within 30 minutes of the first regimen.
Body weights were recorded daily for days 1-5 and then twice weekly until the end of the study and tumor volumes were recorded twice weekly until the end of the experiment. These parameters were analyzed and graphically represented by using GraphPad-Prism™ 5 for Windows according to standard procedure. […] Tumor free animals at the end of the study time were assessed for residual MDA-MB-231 tumor cells by pathological methods. Skin and subcutaneous tissue including the tumor cell inoculation site from the flank region were resected, preserved in formalin and embedded in paraffin.

[2] = Tolerability in the MDA-MB-231 xenograft model (body weight, mortalities); settings: for Final body-weight / Body-weight change: mean ± SD
Protocol: as §1, with “The” for “Female athymic nude mice (Crl:NU(NCr)-Foxnlnu, Charles River) were used when ten weeks old with a body weight (BW) range of 19.7-27.1 g on Day 1 of the study. The animals were fed ad libitum water (reverse osmosis, 1 ppm Cl) and NIH 31 Modified and Irradiated Lab Diet® consisting of 18.0% crude protein, 5.0% crude fat, and 5.0% crude fiber. The”
as §2, with “All” for “Groups of mice (n=8-10) bearing MDA-MB-231 tumors were dosed as outlined in the Tables 1 and 3. All”
Body weights were recorded daily for days 1-5 and then twice weekly until the end of the study and tumor volumes were recorded twice weekly until the end of the experiment. These parameters were analyzed and graphically represented by using GraphPad-Prism™ 5 for Windows according to standard procedure. […] Skin and subcutaneous tissue including the tumor cell inoculation site from the flank region were resected, preserved in formalin and embedded in paraffin. Sections of approximately 5 μm were mounted on glass slides and stained with hematoxylin/eosin and were evaluated by a trained pathologist, to identify residual tumor cells at the site of injection, and were being reported as positive for the existence of residual tumor cells or as negative for a complete lack of any evidence of residual tumor cells.

[3] = Day 26, BAL101553 p.o. 20 mg/kg qd D1-D21, 20 mg/kg qd D25-D43
[4] = Day 100 (endpoint), BAL101553 p.o. 20 mg/kg qd D1-D21, 20 mg/kg qd D25-D43
[5] = E1A, Day 25, p.o. 20 mg/kg qd x5/qw D1-D9, 20 mg/kg qd D12-D34
[6] = E1A, Day 25, p.o. 30 mg/kg qd x5/qw D1-D9, 25 mg/kg qd D12-D34
[7] = E1A, Day 85 (endpoint), p.o. 20 mg/kg qd x5/qw D1-D9, 20 mg/kg qd D12-D34
[8] = E1A, Day 85 (endpoint), p.o. 30 mg/kg qd x5/qw D1-D9, 25 mg/kg qd D12-D34
[9] = E1B, Day 26, p.o. 20 mg/kg qd D1-D21, 20 mg/kg qd D25-D43

## N#CCCNc1nonc1-c1nc2ccccc2n1CC(=O)c1ccc(NC(=O)[C@@H](N)CCCCN)cc1 [BAL101553, (S)-2,6-Diamino-hexanoic acid [4-(2-{2-[4-(2-cyano-ethylamino)-furazan-3-yl]-benzoimidazol-1-yl}-acetyl)-phenyl]-amide]
[1]; [3]
  # of regressed tumors (total): 1 (10)
  T/C: 0.12
[1]; [4]
  # of confirmed cures (total): 1 (10)
  # of tumors with TV ≤ 4 mm^3 (total): 0 (10)
  % cures: 10%
[1]; [5]
  # of regressed tumors (total): 0 (8)
  T/C: 0.21
[1]; [6]
  # of regressed tumors (total): 4 (8)
  T/C: 0.07
[1]; [7]
  # of confirmed cures (total): 0 (8)
  # of tumors with TV ≤ 4 mm^3 (total): 0 (8)
  % cures: 0%
[1]; [8]
  # of confirmed cures (total): 0 (8)
  # of tumors with TV ≤ 4 mm^3 (total): 0 (8)
  % cures: 0%
[2]; [5]
  Final body-weight: 26.6 ± 1.6 g
  T/C (TC-BW, body weight): 1.02
[2]; [6]
  Final body-weight: 25 ± 1.9 g
  T/C (TC-BW, body weight): 1.00
[2]; E1A, day-0 until day-25, p.o. 20 mg/kg qd x5/qw D1-D9, 20 mg/kg qd D12-D34
  Body-weight change: 2.8 ± 0.7 g
[2]; E1A, day-0 until day-25, p.o. 30 mg/kg qd x5/qw D1-D9, 25 mg/kg qd D12-D34
  Body-weight change: 2.0 ± 0.8 g
[2]; E1A, p.o. 20 mg/kg qd x5/qw D1-D9, 20 mg/kg qd D12-D34
  Mortalities: 0/8
[2]; [9]
  Final body-weight: 25.9 ± 1.4 g
  T/C (TC-BW, body weight): 1.04
[2]; E1B, day-0 until day-26, p.o. 20 mg/kg qd D1-D21, 20 mg/kg qd D25-D43
  Body-weight change: 2.6 ± 0.7 g
[2]; E1B, p.o. 20 mg/kg qd D1-D21, 20 mg/kg qd D25-D43
  Mortalities: 0/10
